# From patent US20120172340A1, “Compositions and Methods for Selectively Activating Human Sirtuins” (BIOMOL International L.P., priority 2004, published 2012)
# Entries after “also recorded” stand apart in the source; their conditions may differ.
# Key:
# human SIRT1 = molecular target: T1, human SIRT1 (Homo sapiens, UniProt Q96EB6); test: SIRT1 rate measurement, fluorogenic p53-382 peptide deacetylation; assay type: biochemical; conditions: 100 μM test compounds; 25 μM NAD+, 25 μM p53-382 peptide
# T1 construct: made in house; host or cells: E. coli
# T1 sequence (Q96EB6 1-747): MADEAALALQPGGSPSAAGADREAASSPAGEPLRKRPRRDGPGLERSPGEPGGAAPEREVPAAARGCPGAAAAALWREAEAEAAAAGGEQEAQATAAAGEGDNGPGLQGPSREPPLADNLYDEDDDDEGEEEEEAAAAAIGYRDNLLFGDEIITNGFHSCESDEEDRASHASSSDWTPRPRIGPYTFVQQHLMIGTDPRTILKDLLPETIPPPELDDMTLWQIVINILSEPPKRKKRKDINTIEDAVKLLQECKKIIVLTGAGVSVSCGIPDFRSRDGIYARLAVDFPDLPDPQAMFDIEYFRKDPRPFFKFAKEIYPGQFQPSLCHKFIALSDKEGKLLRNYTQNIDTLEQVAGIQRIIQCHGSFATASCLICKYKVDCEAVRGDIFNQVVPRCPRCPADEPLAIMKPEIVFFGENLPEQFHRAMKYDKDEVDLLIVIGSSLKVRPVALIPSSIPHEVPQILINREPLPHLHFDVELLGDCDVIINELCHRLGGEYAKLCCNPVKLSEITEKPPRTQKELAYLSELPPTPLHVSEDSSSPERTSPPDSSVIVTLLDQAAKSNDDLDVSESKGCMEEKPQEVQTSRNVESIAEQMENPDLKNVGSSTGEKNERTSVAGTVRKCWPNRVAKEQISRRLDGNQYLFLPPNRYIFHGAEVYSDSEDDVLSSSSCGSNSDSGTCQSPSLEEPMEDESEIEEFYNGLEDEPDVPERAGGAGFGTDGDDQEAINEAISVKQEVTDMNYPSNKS
# human SIRT5 = molecular target: T2, human SIRT5 (Homo sapiens, UniProt Q9NXA8); test: SIRT5 rate measurement, fluorogenic p53-382 peptide deacetylation; assay type: biochemical; design: His6 (histidine tag, 2.5 kDa) (N); made in house; host or cells: E. coli; conditions: for relative activation of SIRT5 versus SIRT1 (in words): comparison of Table 2 SIRT5 and SIRT1 data
# T2 sequence (Q9NXA8 37-310): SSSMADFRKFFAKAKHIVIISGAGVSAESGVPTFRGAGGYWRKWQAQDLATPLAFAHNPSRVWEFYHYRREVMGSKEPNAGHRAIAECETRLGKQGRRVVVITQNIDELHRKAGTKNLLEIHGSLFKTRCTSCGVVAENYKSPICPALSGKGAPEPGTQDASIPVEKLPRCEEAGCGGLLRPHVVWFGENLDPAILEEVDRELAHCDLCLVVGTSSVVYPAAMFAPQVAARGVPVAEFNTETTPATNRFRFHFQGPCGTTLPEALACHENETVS
# [1] = 200 μM test compounds, 500 μM NAD+, 100 μM p53-382 peptide
Compound,SIRT1 Ratio to Control Rates Mean ± SE Compounds at 100 μM (human SIRT1),SIRT5 Ratio of Control Rates Mean ± SE Compounds at 200 μM (human SIRT5; [1]),relative activation of SIRT5 versus SIRT1 (in words) (human SIRT5),identified as human SIRT5 inhibitor (human SIRT5),"maximum stimulation observed for SIRT5, increase in activity (human SIRT5; [1])","maximum stimulation observed for SIRT1, increase in activity (human SIRT1)"
"CSc1ccc(/C=C/c2cc(O)cc(O)c2)cc1 [BML-230, 3,5-Dihydroxy-4′-thiomethyl-trans-stilbene]",6.84 ± 1.26,4.60 ± 0.17,,,,
"Oc1cc(O)cc(/C=C/c2ccc(O)c(O)c2)c1 [Piceatannol, 3,5,3′,4′-Tetrahydroxy-trans-stilbene]",7.90 ± 0.50,3.23 ± 0.21,relatively more potent at activating SIRT1 than SIRT5,,,
"Cc1ccc(NC(=O)c2cccc(N(C)C)c2)cc1NC(=O)c1ccc(O)cc1 [ZM 336372, N-[5-(3-dimethylaminobenzamido)-2-methylphenyl]-4-hydroxybenzamide]",3.5 ± 1.1,0.74 ± 0.05,selective activators of SIRT1 as compared to SIRT5,SIRT5 inhibitors,,
"CC(=O)Nc1ccc(/C=C/c2cc(O)cc(O)c2)cc1 [BML-222, 3,5-Dihydroxy-4′-acetamide-trans-stilbene]",1.88 ± 0.11,2.26 ± 0.17,,,,
"CC(C)c1ccc(/C=C/c2cc(O)cc(O)c2)cc1 [BML-231, 3,5-Dihydroxy-4′-isopropyl-trans-stilbene]",6.01 ± 0.15,8.41 ± 0.22,,,,
"Oc1cc(O)cc(/C=C/c2ccccc2)c1 [Pinosylvin, 3,5-Dihydroxy-trans-stilbene]",9.95 ± 0.45,2.71 ± 0.092,relatively more potent at activating SIRT1 than SIRT5,,,
COc1ccc(/C=C/c2ccccc2)cc1 [4-Methoxy-trans-stilbene],0.84 ± 0.09,0.79 ± 0.20,,SIRT5 inhibitors,,
"O=C(O)c1ccc(/C=C/c2cc(O)cc(O)c2)cc1 [BML-238, 3,5-Dihydroxy-4′-carboxy-trans-stilbene]",1.36 ± 0.10,2.09 ± 0.25,,,,
"Oc1cc(O)cc(/C=C/c2ccc(Cl)cc2)c1 [BML-217, 3,5-Dihydroxy-4′-chloro-trans-stilbene]",10.6 ± 0.4,13.6 ± 0.4,potent activator of SIRT5 and SIRT1,,13.6 fold,
"COC(=O)c1ccc(/C=C/c2cc(O)cc(O)c2)cc1 [BML-237, 3,5-Dihydroxy-4′-carbomethoxy-trans-stilbene]",2.74 ± 0.37,4.50 ± 0.28,selective activators of SIRT5 as compared to SIRT1,,,
"Cc1ccc(/C=C/c2cc(O)cc(O)c2)cc1 [BML-228, 3,5-Dihydroxy-4′-methyl-trans-stilbene]",7.72 ± 0.12,8.12 ± 0.31,,,,
"Oc1cc(O)cc(/C=C/c2ccncc2)c1 [BML-236, (E)-1-(3,5-Dihydroxyphenyl)-2-(4-pyridyl)ethene]",1.26 ± 0.12,2.49 ± 0.29,,,,
"O=[N+]([O-])c1ccc(/C=C/c2cc(O)cc(O)c2)cc1 [BML-229, 3,5-Dihydroxy-4′-nitro-trans-stilbene]",6.78 ± 0.22,3.43 ± 0.10,,,,
"CC(=O)Oc1ccc(/C=C/c2cc(O)cc(O)c2)cc1 [BML-221, 3,5-Dihydroxy-4′-acetoxy-trans-stilbene]",3.05 ± 0.54,2.89 ± 0.15,,,,
"O=C(/C=C/c1ccc(O)c(O)c1)c1ccc(O)cc1O [Butein, 3,4,2′,4′-Tetrahydroxychalcone]",8.53 ± 0.89,2.19 ± 0.10,selective activators of SIRT1 as compared to SIRT5; also recorded: relatively less potent SIRT5 activation,,,
"CCc1ccc(/C=C/c2cc(O)cc(O)c2)cc1 [BML-225, 3,5-Dihydroxy-4′-ethyl-trans-stilbene]",9.373 ± 0.014,8.41 ± 0.36,,,,
"Oc1ccc(/C=C/c2ccccc2)cc1O [3,4-Dihydroxy-trans-stilbene]",1.64 ± 0.10,0.58 ± 0.25,,SIRT5 inhibitors,,
"CCSc1ccc(/C=C/c2cc(O)cc(O)c2)cc1 [BML-243, 3,5-Dihydroxy-4′-thioethyl-trans-stilbene]",12.6 ± 0.4,2.12 ± 0.34,selective activators of SIRT1 as compared to SIRT5; also recorded: relatively less potent SIRT5 activators,,,12.6 fold
"CC(Cc1ccc(O)c(O)c1)C(C)Cc1ccc(O)c(O)c1 (stereo not drawn) [NDGA, Nordihydroguaiaretic acid]",1.738 ± 0.088,1.91 ± 0.02,,,,
"O=c1c(O)c(-c2ccc(O)c(O)c2)oc2cc(O)cc(O)c12 [Quercetin, 3,5,7,3′,4′-Pentahydroxyflavone]",4.59 ± 0.47,2.18 ± 0.10,relatively less potent SIRT5 activation,,,
"CC(=O)Oc1cc(O)cc(/C=C/c2ccc(O)cc2)c1 [BML-227, 3,4′-Dihydroxy-5-acetoxy-trans-stilbene]",2.69 ± 0.08,2.09 ± 0.25,,,,
"O=c1c(O)c(-c2ccc(O)c(O)c2)oc2cc(O)ccc12 [Fisetin, 3,7,3′,4′-Tetrahydroxyflavone]",6.58 ± 0.69,2.61 ± 0.19,relatively less potent SIRT5 activation,,,
Oc1cccc(/C=C/c2ccccc2)c1 [3-Hydroxy-trans-stilbene],2.36 ± 0.07,0.79 ± 0.06,,SIRT5 inhibitors,,
"Oc1cc(O)cc(/C=C/c2ccc3ccccc3c2)c1 [BML-218, (E)-1-(3,5-Dihydroxyphenyl)-2-(2-napthyl)ethene]",3.05 ± 0.37,2.47 ± 0.22,,,,
"COc1cc(O)cc(/C=C/c2ccc(NC(C)=O)cc2)c1 [BML-223, 3-methoxy-5-hydroxy-4′-acetamido-trans-stilbene]",,3.10 ± 0.016,,,,
"Oc1cc(O)cc(/C=C/C2CCCCC2)c1 [BML-224, (E)-1-(3,5-Dihydroxyphenyl)-2-(cyclohexyl)ethene]",1.30 ± 0.04,1.40 ± 0.23,,,,
